Laboratory results from ChEMBL document CHEMBL6178022, “Discovery and Optimization of Potent PROTAC Degraders of Phosphoinositide 3-Kinase with Significant in Vivo Anticancer Efficacy” (J Med Chem, 2025).

What was measured:
[1] = tested on: HGC-27; experiment: Antitumor activity against human HGC-27 cells xenografted in male BALB/c nude mouse model at 30 mg/kg, ip qd treated for 14 days consecutively relative to control; assay type: functional; conditions: HGC-27, 336 h, time 14 day, read-out: TGI
[2] = Cytotoxicity against human AC16 [Human hybrid] cells; assay type: toxicity, cell-based
[3] = Toxicity in C57BL/6J mouse administered intraperitoneally for 7 days; conditions: in vivo, route ip, time 7 day
[4] = tested on: LNCaP; experiment: Antiproliferative activity against human LNCaP cells assessed as inhibition of cell viability incubated for 3 days by MTT/CTG assay; conditions: 72 h
[5] = tested on: T47D; experiment: Antiproliferative activity against human T47D cells assessed as inhibition of cell viability incubated for 3 days by MTT/CTG assay; conditions: 72 h
[6] = Metabolic stability in dog liver microsomes assessed as half life at 2 uM measured up to 60 mins by LC-MS/MS analysis; assay type: ADME, Canis lupus familiaris, Microsome
[7] = Metabolic stability in mouse liver microsomes assessed as half life at 2 uM measured up to 60 mins by LC-MS/MS analysis; assay type: ADME, Microsome
[8] = Terminal half life in Sprague-Dawley rat at 1.5 mg/kg, iv measured for 24 hrs by LC-MS/MS analysis; assay type: ADME, organism-based; conditions: in vivo, read-out: beta t1/2 (converted)
[9] = tested on: DOHH-2; experiment: Antitumor activity against human DOHH-2 cells xenografted in male BALB/c nude mouse model at 30 mg/kg, ip qd treated for 21 days consecutively relative to control; assay type: functional; conditions: DOHH-2, 504 h, time 21 day, read-out: TGI
[10] = tested on: HGC-27; experiment: Antitumor activity against human HGC-27 cells xenografted in male BALB/c nude mouse model at 60 mg/kg, ip qd treated for 14 days consecutively relative to control; assay type: functional; conditions: HGC-27, 336 h, time 14 day, read-out: TGI
[11] = AUC (0 to t) in Sprague-Dawley rat at 1.5 mg/kg, iv measured for 24 hrs by LC-MS/MS analysis; assay type: ADME, organism-based; conditions: in vivo
[12] = MRT (0 to t) in ICR mouse at 30 mg/kg, ip measured for 24 hrs by LC-MS/MS analysis; assay type: ADME, organism-based; conditions: in vivo
[13] = Metabolic stability in mouse plasma at 2 uM measured up to 60 mins by LC-MS/MS analysis; assay type: ADME, cell-free; conditions: 1 h
[14] = MRT (0 to t) in Sprague-Dawley rat at 1.5 mg/kg, iv measured for 24 hrs by LC-MS/MS analysis; assay type: ADME, organism-based; conditions: in vivo
[15] = tested on: MDA-MB-453; experiment: Antiproliferative activity against human MDA-MB-453 cells assessed as inhibition of cell viability incubated for 3 days by MTT/CTG assay; conditions: MDA-MB-453, 72 h
[16] = MRT (0 to t) in Sprague-Dawley rat at 15 mg/kg, ip measured for 24 hrs by LC-MS/MS analysis; assay type: ADME, organism-based; conditions: in vivo
[17] = Toxicity in male BALB/c nude mouse model xenografted with human DOHH-2 cells assessed as drug tolerance at 30 mg/kg, ip qd treated for 21 days consecutively; assay type: organism-based; conditions: in vivo, 504 h, time 21 day
[18] = AUC (0 to t) in ICR mouse at 30 mg/kg, ip measured for 24 hrs by LC-MS/MS analysis; assay type: ADME, organism-based; conditions: in vivo
[19] = AUC (0 to t) in Sprague-Dawley rat at 15 mg/kg, ip measured for 24 hrs by LC-MS/MS analysis; assay type: ADME, organism-based; conditions: in vivo
[20] = Metabolic stability in monkey liver microsomes assessed as half life at 2 uM measured up to 60 mins by LC-MS/MS analysis; assay type: ADME, Macaca mulatta, Microsome; conditions: rhesus monkey
[21] = target: Voltage-gated inwardly rectifying potassium channel KCNH2 (Homo sapiens, UniProt Q12809); experiment: Inhibition of hERG stably expressed in HEK293 cells by whole-cell patch-clamp technique; assay type: toxicity, cell-based
Voltage-gated inwardly rectifying potassium channel KCNH2, sequence (Q12809 whole entry): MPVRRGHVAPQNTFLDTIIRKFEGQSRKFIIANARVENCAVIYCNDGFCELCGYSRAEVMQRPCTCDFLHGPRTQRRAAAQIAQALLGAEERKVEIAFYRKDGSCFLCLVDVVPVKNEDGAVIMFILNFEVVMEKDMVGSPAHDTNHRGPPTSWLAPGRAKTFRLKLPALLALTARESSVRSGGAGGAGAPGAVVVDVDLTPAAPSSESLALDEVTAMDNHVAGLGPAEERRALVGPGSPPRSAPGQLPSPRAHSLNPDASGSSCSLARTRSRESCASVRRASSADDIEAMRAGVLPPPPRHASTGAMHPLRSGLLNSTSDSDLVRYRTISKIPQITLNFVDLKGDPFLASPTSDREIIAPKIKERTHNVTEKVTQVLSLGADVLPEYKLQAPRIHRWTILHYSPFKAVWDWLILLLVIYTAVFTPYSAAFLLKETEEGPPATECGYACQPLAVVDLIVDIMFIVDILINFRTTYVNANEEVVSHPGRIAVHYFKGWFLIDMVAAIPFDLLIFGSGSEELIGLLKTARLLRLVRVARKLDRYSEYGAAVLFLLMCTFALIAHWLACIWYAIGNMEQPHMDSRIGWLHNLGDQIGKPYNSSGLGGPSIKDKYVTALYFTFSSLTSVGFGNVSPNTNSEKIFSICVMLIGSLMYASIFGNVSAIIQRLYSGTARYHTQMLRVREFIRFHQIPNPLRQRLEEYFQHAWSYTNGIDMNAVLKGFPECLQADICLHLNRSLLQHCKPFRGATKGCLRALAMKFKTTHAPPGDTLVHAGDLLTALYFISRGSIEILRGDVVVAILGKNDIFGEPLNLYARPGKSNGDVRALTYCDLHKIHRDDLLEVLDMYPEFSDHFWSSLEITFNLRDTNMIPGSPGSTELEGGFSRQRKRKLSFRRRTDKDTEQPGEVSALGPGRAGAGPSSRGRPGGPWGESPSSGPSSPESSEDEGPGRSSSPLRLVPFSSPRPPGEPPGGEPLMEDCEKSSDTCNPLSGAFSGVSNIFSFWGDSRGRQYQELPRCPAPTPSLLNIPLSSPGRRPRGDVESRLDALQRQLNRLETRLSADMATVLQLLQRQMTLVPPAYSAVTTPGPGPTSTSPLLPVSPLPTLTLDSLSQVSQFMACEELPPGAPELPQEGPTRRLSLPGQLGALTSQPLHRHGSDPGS

[22] = target: hERG (KCNH2) (Homo sapiens, UniProt Q12809); experiment: Inhibition of hERG stably expressed in HEK293 cells at 10 uM by whole-cell patch-clamp technique relative to control; assay type: toxicity, cell-based; conditions: HEK293 cells stably expressing hERG
hERG (KCNH2), sequence (Q12809 whole entry): as above

[23] = Drug metabolism in mouse liver microsomes at 2 uM measured up to 60 mins in absence of NADPH by LC-MS/MS analysis; assay type: ADME, Microsome; conditions: 1 h
[24] = Metabolic stability in dog plasma at 2 uM measured up to 60 mins by LC-MS/MS analysis; assay type: ADME, cell-free, Canis lupus familiaris; conditions: 1 h
[25] = tested on: PC-3; experiment: Antiproliferative activity against human PC-3 cells assessed as inhibition of cell viability incubated for 3 days by MTT/CTG assay; conditions: PC-3, 72 h
[26] = Metabolic stability in rat liver microsomes assessed as half life at 2 uM measured up to 60 mins by LC-MS/MS analysis; assay type: ADME, Microsome
[27] = Toxicity in male BALB/c nude mouse model xenografted with human DOHH-2 cells assessed as body weight loss at 30 mg/kg, ip qd treated for 21 days consecutively; assay type: organism-based; conditions: in vivo, 504 h, time 21 day
[28] = tested on: Mus musculus; experiment: In vivo PROTAC activity at CRBN/PI3K-alpha in human HGC-27 cells xenografted in male BALB/c nude mouse model assessed as PI3K-alpha degradation administered intraperitoneally once daily for 14 days consecutively; assay type: functional, organism-based; conditions: dose 30-60 mg/kg, route ip, time 14.0 day
[29] = target: Phosphatidylinositol 4,5-bisphosphate 3-kinase catalytic subunit gamma isoform (Homo sapiens, UniProt P48736); experiment: Inhibition of PI3K-gamma (unknown origin) by kinase selectivity profiling analysis
Phosphatidylinositol 4,5-bisphosphate 3-kinase catalytic subunit gamma isoform, sequence (P48736 whole entry, canonical isoform): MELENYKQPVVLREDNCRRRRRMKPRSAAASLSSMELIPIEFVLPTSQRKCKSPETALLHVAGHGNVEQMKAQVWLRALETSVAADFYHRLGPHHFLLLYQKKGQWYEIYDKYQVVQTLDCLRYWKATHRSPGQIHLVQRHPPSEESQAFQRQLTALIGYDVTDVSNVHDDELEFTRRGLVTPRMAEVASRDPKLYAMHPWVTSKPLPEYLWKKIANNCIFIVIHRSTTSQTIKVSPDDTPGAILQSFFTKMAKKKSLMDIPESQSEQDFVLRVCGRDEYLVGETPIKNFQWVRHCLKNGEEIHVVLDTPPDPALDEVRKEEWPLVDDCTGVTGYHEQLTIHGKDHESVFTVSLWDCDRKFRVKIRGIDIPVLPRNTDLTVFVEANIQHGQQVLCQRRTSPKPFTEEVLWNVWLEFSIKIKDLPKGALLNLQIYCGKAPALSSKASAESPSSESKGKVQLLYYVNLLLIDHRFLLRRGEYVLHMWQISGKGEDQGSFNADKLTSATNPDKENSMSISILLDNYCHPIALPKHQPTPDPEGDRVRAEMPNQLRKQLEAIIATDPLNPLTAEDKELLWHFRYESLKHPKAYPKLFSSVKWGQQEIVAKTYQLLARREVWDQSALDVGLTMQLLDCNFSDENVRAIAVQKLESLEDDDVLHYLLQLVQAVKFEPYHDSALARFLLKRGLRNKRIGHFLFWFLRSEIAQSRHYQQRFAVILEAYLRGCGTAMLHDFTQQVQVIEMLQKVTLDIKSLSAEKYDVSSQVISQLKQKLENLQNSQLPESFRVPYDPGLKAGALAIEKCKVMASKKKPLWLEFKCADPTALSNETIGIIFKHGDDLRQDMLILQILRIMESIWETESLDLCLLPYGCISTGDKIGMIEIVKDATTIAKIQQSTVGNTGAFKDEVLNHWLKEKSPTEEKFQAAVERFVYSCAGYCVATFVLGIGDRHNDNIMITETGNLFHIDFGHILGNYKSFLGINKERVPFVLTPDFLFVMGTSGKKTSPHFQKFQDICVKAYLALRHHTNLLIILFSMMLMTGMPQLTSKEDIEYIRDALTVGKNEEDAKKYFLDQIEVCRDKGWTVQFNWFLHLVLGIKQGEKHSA

[30] = tested on: HGC-27; experiment: Antiproliferative activity against human HGC-27 cells assessed as inhibition of cell viability incubated for 3 days by MTT/CTG assay; conditions: HGC-27, 72 h
[31] = tested on: T47D; experiment: Induction of cell cycle arrest in human T47D cells assessed as accumulation at G2/M phase incubated for 24 hrs by PI staining based flow cytometry; assay type: functional; conditions: dose 0.1-10 µM
[32] = Metabolic stability in rat plasma at 2 uM measured up to 60 mins by LC-MS/MS analysis; assay type: ADME, cell-free; conditions: 1 h
[33] = Metabolic stability in human plasma at 2 uM measured up to 60 mins by LC-MS/MS analysis; assay type: ADME, cell-free; conditions: 1 h
[34] = Terminal half life in Sprague-Dawley rat at 15 mg/kg, ip measured for 24 hrs by LC-MS/MS analysis; assay type: ADME, organism-based; conditions: in vivo, read-out: beta t1/2 (converted)
[35] = Oral bioavailability in ICR mouse at 30 mg/kg measured for 24 hrs by LC-MS/MS analysis; assay type: ADME, organism-based; conditions: in vivo
[36] = tested on: T47D; experiment: Effect on PI3K-alpha mRNA level in human T47D cells at 1 uM incubated for 24 hrs by RT-PCR analysis; assay type: functional, cell-based
[37] = Toxicity in male BALB/c nude mouse model xenografted with human HGC-27 cells assessed as body weight change at 30 to 60 mg/kg, ip qd treated for 14 days consecutively; assay type: organism-based; conditions: in vivo, 336 h, dose 30-60 mg/kg, time 14 day
[38] = Drug metabolism in monkey liver microsomes at 2 uM measured up to 60 mins in absence of NADPH by LC-MS/MS analysis; assay type: ADME, Macaca mulatta, Microsome; conditions: rhesus monkey, 1 h
[39] = Drug metabolism in dog liver microsomes at 2 uM measured up to 60 mins in absence of NADPH by LC-MS/MS analysis; assay type: ADME, Canis lupus familiaris, Microsome; conditions: 1 h
[40] = MRT (0 to t) in ICR mouse at 3 mg/kg, iv measured for 24 hrs by LC-MS/MS analysis; assay type: ADME, organism-based; conditions: in vivo
[41] = Terminal half life in ICR mouse at 3 mg/kg, iv measured for 24 hrs by LC-MS/MS analysis; assay type: ADME, organism-based; conditions: in vivo, read-out: beta t1/2 (converted)
[42] = Cmax in Sprague-Dawley rat at 15 mg/kg, ip measured for 24 hrs by LC-MS/MS analysis; assay type: ADME, organism-based; conditions: in vivo
[43] = Toxicity in male BALB/c nude mouse model xenografted with human HGC-27 cells assessed as drug tolerance at 30 to 60 mg/kg, ip qd treated for 14 days consecutively; assay type: organism-based; conditions: in vivo, 336 h, dose 30-60 mg/kg, time 14 day
[44] = Cmax in ICR mouse at 30 mg/kg, ip measured for 24 hrs by LC-MS/MS analysis; assay type: ADME, organism-based; conditions: in vivo
[45] = Oral bioavailability in Sprague-Dawley rat at 15 mg/kg measured for 24 hrs by LC-MS/MS analysis; assay type: ADME, organism-based; conditions: in vivo
[46] = tested on: Pfeiffer; experiment: Antiproliferative activity against human Pfeiffer cells assessed as inhibition of cell viability incubated for 3 days by MTT/CTG assay; conditions: 72 h
[47] = Terminal half life in ICR mouse at 30 mg/kg, ip measured for 24 hrs by LC-MS/MS analysis; assay type: ADME, organism-based; conditions: in vivo, read-out: beta t1/2
[48] = Metabolic stability in monkey plasma at 2 uM measured up to 60 mins by LC-MS/MS analysis; assay type: ADME, cell-free, Macaca mulatta; conditions: rhesus monkey, 1 h
[49] = Metabolic stability in human liver microsomes assessed as half life at 2 uM measured up to 60 mins by LC-MS/MS analysis; assay type: ADME, Microsome
[50] = tested on: AGS; experiment: Antiproliferative activity against human AGS cells assessed as inhibition of cell viability incubated for 3 days by MTT/CTG assay; conditions: 72 h
[51] = AUC (0 to t) in ICR mouse at 3 mg/kg, iv measured for 24 hrs by LC-MS/MS analysis; assay type: ADME, organism-based; conditions: in vivo
[52] = Drug metabolism in human liver microsomes at 2 uM measured up to 60 mins in absence of NADPH by LC-MS/MS analysis; assay type: ADME, Microsome; conditions: 1 h
[53] = Toxicity in C57BL/6J mouse assessed as body weight change at 100 mg/kg, ip treated daily for 7 days; assay type: organism-based; conditions: in vivo, 168 h, time 7 day
[54] = Drug metabolism in rat liver microsomes at 2 uM measured up to 60 mins in absence of NADPH by LC-MS/MS analysis; assay type: ADME, Microsome; conditions: 1 h

COc1ncc(-c2cc(OCCCCCCCCCCCCNc3cccc4c3C(=O)N(C3CCC(=O)NC3=O)C4=O)c3ncnc(C)c3c2)cc1NS(=O)(=O)c1ccc(F)cc1F (stereo unspecified)
inhibition in vivo at 30 mg/kg [1]: 38.3%
IC50 [2]: > 50 µM
MTD at 168 h [3]: > 100 mg/kg
IC50 [4]: 3.38 µM
IC50 [5]: 350 nM
half-life at 2 µM [6]: 67.5 min
half-life at 2 µM [7]: 22.6 min
half-life [8]: 127 min
inhibition in vivo at 30 mg/kg [9]: 61.8%
inhibition in vivo at 60 mg/kg [10]: 56.8%
AUC(0-t) at 24 h [11]: 1120 ng·h/mL
MRT last at 24 h [12]: 10.7 h
Stability [13]: Stable
MRT last at 24 h [14]: 1.98 h
IC50 [15]: 1640 nM
MRT last at 24 h [16]: 6.05 h
Activity [17]: Non-toxic
AUC(0-t) at 24 h [18]: 26300 ng·h/mL
AUC(0-t) at 24 h [19]: 5490 ng·h/mL
half-life at 2 µM [20]: 32.5 min
IC50 [21]: > 10 µM
inhibition at 10 µM [22]: 10.2%
Drug metabolism [23]: metabolite_notdetected
Stability [24]: Stable
IC50 [25]: 1.48 µM
half-life at 2 µM [26]: 45.7 min
Activity [27]: Non-toxic
Activity [28]: Dose-dependent-effect
IC50 [29]: > 10 µM
IC50 [30]: 1450 nM
Activity [31]: Dose-dependent-effect
Stability [32]: Stable
Stability [33]: Stable
half-life [34]: 257 min
bioavailability [35]: 20%
Activity [36]: No effect
Activity [37]: Non-toxic
Drug metabolism [38]: metabolite_notdetected
Drug metabolism [39]: metabolite_notdetected
MRT last at 24 h [40]: 6.69 h
half-life [41]: 473 min
Cmax [42]: 555 ng/mL
Activity [43]: Non-toxic
Cmax [44]: 1420 ng/mL
bioavailability [45]: 46.4%
IC50 [46]: 690 nM
half-life [47]: > 1440 min
Stability [48]: Stable
half-life at 2 µM [49]: 34.7 min
IC50 [50]: 370 nM
AUC(0-t) at 24 h [51]: 12700 ng·h/mL
Drug metabolism [52]: metabolite_notdetected
Activity [53]: Non-toxic
Drug metabolism [54]: metabolite_notdetected

Cc1nc(NC(=O)N2CCC[C@H]2C(N)=O)sc1-c1ccnc(C(C)(C)C(F)(F)F)c1 [ALPELISIB]
IC50 [4]: 15.8 µM
IC50 [5]: 360 nM
IC50 [15]: 770 nM
IC50 [25]: 13.2 µM
IC50 [30]: 1920 nM
IC50 [46]: > 50000 nM
IC50 [50]: 520 nM
